Consider six molecules from PMC8653682, “Anti-Helicobacter pylori Compounds from Oliveria decumbens Vent. through Urease Inhibitory In-vitro and In-silico Studies” (Iranian Journal of Pharmaceutical Research : IJPR, 2021).

As a reminder, the MIC is the lowest concentration found to suppress growth. A word on the IC50: it is the concentration at which inhibition is half-maximal.

In brackets after ≈: the same amount, converted by molar mass. Where two headings read alike, the source gives them in different places.

For experiment [1], the system named is Helicobacter pylori strain RIGLD-HC180. In words: Anti-Helicobacter pylori activity by agar dilution method. Type of experiment: cell-based. To be noted: RIGLDHC180, 72 h, tested 50 to 2000 μg/mL, read-out: MIC for the growth of Helicobacter pylori. How it is done:
Anti-Helicobacter pylori activity of the samples was investigated by an agar dilution method according to our previous study ([17]). […] The Agar dilution method has been standardized previously as an appropriate method to determine minimum inhibitory concentrations (MIC) of water-insoluble and colored plant extracts. […] Growth control plates were included in each experiment. […] All the experiments were performed in triplicate. Plates, including amoxicillin, were used as a positive control ([17]).
(In agar dilution the substance is mixed into plates at graded concentrations.)

The target of experiment [2] is T1, Jack bean urease (Canavalia ensiformis, UniProt P07374).
T1 construct: purchased Sigma-Aldrich
T1 sequence (P07374 whole entry, looked up): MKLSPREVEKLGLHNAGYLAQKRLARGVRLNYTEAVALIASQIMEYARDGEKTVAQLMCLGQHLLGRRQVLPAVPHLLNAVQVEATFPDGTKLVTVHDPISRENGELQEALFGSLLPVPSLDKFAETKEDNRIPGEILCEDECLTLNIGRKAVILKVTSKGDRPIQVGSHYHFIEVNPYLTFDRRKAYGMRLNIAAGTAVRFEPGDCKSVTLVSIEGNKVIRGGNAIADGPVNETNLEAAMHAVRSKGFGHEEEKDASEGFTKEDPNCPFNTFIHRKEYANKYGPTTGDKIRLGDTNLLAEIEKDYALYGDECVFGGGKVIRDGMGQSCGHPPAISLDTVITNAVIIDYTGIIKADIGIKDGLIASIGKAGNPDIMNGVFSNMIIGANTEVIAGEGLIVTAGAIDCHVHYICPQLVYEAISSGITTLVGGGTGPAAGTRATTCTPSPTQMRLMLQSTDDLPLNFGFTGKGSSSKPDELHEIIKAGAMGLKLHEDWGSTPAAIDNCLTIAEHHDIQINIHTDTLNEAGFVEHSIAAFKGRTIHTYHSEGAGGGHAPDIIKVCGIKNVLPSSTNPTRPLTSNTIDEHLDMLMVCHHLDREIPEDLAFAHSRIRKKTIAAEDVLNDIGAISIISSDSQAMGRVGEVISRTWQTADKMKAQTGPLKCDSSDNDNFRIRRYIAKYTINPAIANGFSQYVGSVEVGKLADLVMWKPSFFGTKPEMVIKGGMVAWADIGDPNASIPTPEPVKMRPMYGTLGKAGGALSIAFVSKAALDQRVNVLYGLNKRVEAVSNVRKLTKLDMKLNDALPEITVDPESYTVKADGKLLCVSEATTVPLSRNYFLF
In words: biochemical. Type of experiment: biochemical. As to the method:
Urease inhibitory activity was evaluated based on Tanaka et al. report ([18]). Jack bean urease (Sigma-Aldrich, Germany) was used as a surrogate for H. pylori urease. Each well of a 96-well plate contained 25 μL jack bean urease (6U, Sigma-Aldrich) and 25 μL different concentrations of tested materials that were prepared in phosphate buffer (PBS, pH 6.8 ) and DMSO 1% as a co-solvent. After 30 min incubation at room temperature, 200 μL of a stock solution composed of PBS (100 mM), urea (150 mM), and phenol red were added to each well. The absorbance changes were measured at 570 nm by a microplate reader. Hydroxyurea was used as the positive control ([18]).

Experiment [3] relates to bacteria. Also noted: method as in earlier work. To be noted: combination with norfloxacin, ofloxacin and ciprofloxacin; ref 42 (Falcão‐Silva et al.); cited from earlier work.
Experiment [4] deals with Staphylococcus aureus ATCC 6538. In words: Antibacterial activity by disc diffusion method, S. aureus. The experiment is classed as cell-based. To be noted: extract/fractions 500 µg/disc, ciprofloxacin 5 µg/disc, penicillin 10 µg/disc. As to the method: (§1) Briefly, overnight cultures of bacteria were used to prepare a bacterial inoculum in sterile normal saline. The bacterial inoculum was standardized to the turbidity of 0.5 McFarland (the density equivalent to 1.5 × 10^8 cfu/mL). The surface of Mueller-Hinton (MH) agar plates was covered by 100 µL of diluted bacterial suspension containing 5 ×10^5 cfu. Different concentrations of the plant extract or fraction were prepared. Sterile blank discs (6.4 mm diameter) containing different concentrations of the plant extract or fractions (15 μL) were placed on the agar plates. The mean inhibition zone diameter was measured after overnight incubation at 37 °C.
A general note: Agar diffusion results depend on both activity and mobility in agar.

For experiment [5], the system named is Escherichia coli ATCC 8739. In words: Antibacterial activity by disc diffusion method, E. coli. Type of experiment: cell-based. To be noted: extract/fractions 500 µg/disc, ciprofloxacin 5 µg/disc, penicillin 10 µg/disc. How it is done: as §1
Experiment [6] concerns Staphylococcus epidermidis ATCC 12229. In words: Antibacterial activity by disc diffusion method, S. epidermidis. The experiment is classed as cell-based. Conditions: extract/fractions 500 µg/disc, ciprofloxacin 5 µg/disc, penicillin 10 µg/disc. How it is done:
as §1

Consider `CC1(C)S[C@@H]2[C@H](NC(=O)[C@H](N)c3ccc(O)cc3)C(=O)N2[C@H]1C(=O)O` [Amoxicillin, amoxicillin], for which, in experiment [1], the MIC came to 0.5 µg/mL (≈ 1.37 µM). For `Cc1ccc(C(C)C)cc1O` [Carvacrol], half-maximal inhibition in experiment [2] (IC50) required 0.7 ± 0.01 mM. On to `NC(=O)NO` [Hydroxyurea], for which the IC50 in experiment [2] (isolated compounds, jack bean urease, read-out: Urease inhibitory IC50 (mM) ± SD) came out at 0.78 ± 0.01 mM. The “Urease inhibitory IC50 (µg/mL) ± SD” value in experiment [2] (total extract and fractions, jack bean urease) was 59.51 ± 0.01 µg/mL. In experiment [2], `Cc1ccc(C(C)C)c(O)c1` [Thymol] displayed an IC50 of 1.33 ± 0.06 mM. For `O=C(/C=C/c1ccc(O)cc1)OC[C@H]1O[C@@H](Oc2c(-c3ccc(O)cc3)oc3cc(O)cc(O)c3c2=O)[C@H](O)[C@@H](O)[C@@H]1O` [Tiliroside, Kaempferol-3-O-(6''-O-trans-coumaryl) glucoside], the “Lowering of antibiotic MIC values in combination with tiliroside” value in experiment [3] is listed as 2-16 fold. Besides, in experiment [2], the IC50 is 0.45 ± 0.05 mM. Consider penicillin, for which the “Inhibition zone, S. aureus” value in experiment [4] turned out to be 24 mm. The “Inhibition zone, E. coli” value in experiment [5] was determined as 10 mm. For the same molecule, in experiment [6], the “Inhibition zone, S. epidermidis” value came to 26 mm.
